According to a melting point compilation (Tetko et al.; mined from patent text by program, amines drawn as free bases though some values may be those of a salt):
Residues, ends and D or L forms follow the SMILES beside them. *: point of attachment. Boc = CC(C)(C)OC(=O)*

| SMILES | melting point |
| --- | --- |
| CCCCCCCCCCCCCCCCCCOc1cc(OCc2ccc3ccccc3n2)cc(N(CC(=O)OC)CC(=O)OC)c1 | 76 to 79 °C |
| CCCNC(=O)C(C)Cc1ccc2ccn(Cc3ccc(C(=O)NS(=O)(=O)c4ccccc4C)cc3OC)c2c1 (stereo not given) | 192 to 194 °C |
| CC(=O)Nc1ccc(N2CCNCC2)cc1 | 191 to 193 °C |
| COc1ccc(CCN2CCc3cc(OCc4ccccc4)c(OC)cc3C2)cc1 | 88 to 89 °C |
| CCCCCCCCCNC(=O)Nc1ccccc1C(=O)NC1CCN(C(c2ccccc2)c2ccccc2)CC1 | 149 to 150 °C |
| Nc1nc(NCc2ccccc2)nc(C(F)(F)F)n1 | 183 to 185 °C |
| CCCCc1ccc(CC(Cl)C(=O)O)cc1 (stereo not given) | 52.7 to 53.6 °C |
| C[C@](Cc1c[nH]c2ccccc12)(NC(=O)O)C(=O)NCCC1CCCCC1 | 79 to 81 °C |
| COC(=O)C(Oc1ccc(C(C)(C)C)cc1)c1ccc(Sc2ccc(Cl)cc2)cc1 (stereo not given) | 106 to 108 °C |
| O=CNc1ccc(S(=O)(=O)C[N+](=O)[O-])cc1 | 192 to 193 °C |
| CC(O)C#CC1CCC2C3CCC4CC(O)CCC4(C)C3CCC12C (stereo not given) | 169 to 171 °C |
| COC1CCN(c2nnc(-c3ccc(C)cc3)c(-c3ccc(C)cc3)n2)CC1 | 120 to 121 °C |
| c1ccc(C(c2ccccc2)N2CCN(CCCCCCNc3ccc4nncn4n3)CC2)cc1 | 133 to 139 °C |
| COc1ccc(-c2cnc(C)[nH]c2=O)cc1OC | 187 to 188 °C |
| Cc1cc(C)c(S(=O)(=O)Oc2nc(Nc3ccc(F)cc3F)c(C(=O)n3ccnc3)cc2F)c(C)c1 | 98 to 101 °C |
| COc1cc2c(cc1OC)CN(CCc1ccc(NC(=O)c3cccc4c(=O)c5cccc(OC)c5[nH]c34)cc1)C2 | 215 to 225 °C |
| COc1ccc(-c2cc3ncnc(Nc4ccc5[nH]ccc5c4)c3s2)cn1 | 243 to 249 °C |
| Cc1ccc(S(=O)(=O)OCC2Cc3cccc(C=CC(C)(C)C)c3O2)cc1 (stereo not given) | 85 to 88 °C |
| Cc1nc(C2CCC(NC(=O)OCC3c4ccccc4-c4ccccc43)CC2)cs1 (stereo not given) | 140 to 141 °C |
| COc1cc2c(cc1OC)CCC(N(Cc1ccccc1)C(=O)c1ccc(C)cc1)=C2 | 183 to 185 °C |
| CC(=O)Nc1nc(C)c(CCN2CCN(C(c3ccccc3)c3ccccc3)CC2)s1 | 166 to 168 °C |
| O=c1cc(-c2cccc(F)c2)oc(N2CCOCC2)c1 | 169 to 170 °C |
| CCc1ccc(C#CC(C)N(O)C(=O)NC)cc1 (stereo not given) | 126 to 128 °C |
| O=C1c2ccccc2C(=O)N1CCCCCSc1ccccc1 | 87 to 88 °C |

| SMILES | melting point |
| --- | --- |
| CC(C)Cc1nc[nH]n1 | 71 to 73 °C |
| COC(=O)c1cc(=O)c2oc3cc(OC)ccc3c(=O)c2[nH]1 | 258 to 260 °C |
| O=C1Nc2cccc(-c3cccc(C(F)(F)F)c3)c2/C1=C/c1ccc[nH]1 | 197 to 198 °C |
| O=C(Cl)N1CC(Oc2ccc(F)cc2Cl)C1 | 93 to 94 °C |
| Cc1c(F)c(N2CCC(n3ccnn3)CC2)c(F)c2c1c(=O)c(C(=O)O)cn2C1CC1 | 261 to 263 °C |
| Clc1cccc(N2CCN(CCCOc3ccc4scnc4c3)CC2)c1Cl | 127 to 129 °C |
| CC(=O)Oc1cc(Oc2ccccc2)c(OC(C)=O)c2ccccc12 | 137 to 138 °C |
| O=C1c2cccc([N+](=O)[O-])c2C(=O)N1c1ccc(OC(F)(F)F)cc1 | 149 to 150 °C |
| C=C1C(=O)Nc2ccc(C(F)(F)F)cc2CC1c1ccc(OC)cc1 (stereo not given) | 181 to 183 °C |
| Clc1cccc(-c2onc3ccc(Br)cc23)c1 | 163 °C |
| CC1(C2CCC3C4CC=C5CC(O)CC(O)C5(C)C4CCC32C)OCCO1 (stereo not given) | 203 to 207 °C |
| Cc1ccc(=O)[nH]c1C | 202 to 207 °C |
| CCSC(NC(C)=O)C(=O)NCc1ccccc1 (stereo not given) | 146 to 148 °C |
| CC(CNc1cccc(-c2ccnc3c(C(=O)c4cccs4)cnn23)c1)c1ccccc1 (stereo not given) | 108 to 110 °C |
| O=C1c2cc(Cl)ccc2COc2ccccc21 | 82 to 83 °C |
| Cc1ccccc1CC(=NC#N)NC(NC(=O)Cc1ccc2c(c1)OCO2)C(C)(C)C (stereo not given) | 167 to 169 °C |
| OCc1c(F)cccc1-c1ccc2nc(-c3ccc(Cl)cc3)cn2c1 | 229 to 230 °C |
| CC(C)c1c(O)cc(/C=C/c2ccccc2)cc1O | 140 to 142 °C |
| CC1(C)SCCN(S(=O)(=O)c2ccc(-c3ccc(Br)cc3)cc2)C1C(=O)NO (stereo not given) | 190 to 192 °C |
| CCCCc1ncc(/C=C(\Cc2cccs2)C(=O)O)n1Cc1ccccc1OC | 186 to 187 °C |
| O=C(CCc1ccccc1)CS(=O)(=O)C(c1ccc(Cl)cc1)c1ccc(Cl)cc1 | 106 to 107 °C |
| CNS(=O)(=O)c1cccc(NC(=O)c2cnn3c(C(F)(F)F)cc(-c4ccc(C(F)(F)F)cc4)nc23)c1 | 232 °C |
| CCOC(=O)c1ccc(OC(=O)c2cccc(C(=O)Oc3ccc(C(=O)OCC)cc3)c2)cc1 | 123 to 125 °C |
| CC1(C)OC(=S)Nc2ccc(-c3cc(F)cc(C(F)(F)F)c3)cc21 | 204 to 206 °C |

| SMILES | melting point |
| --- | --- |
| CC(C)c1cccc(C(C)C)c1NC(=O)CC(=O)C(c1ccccc1)c1ccccc1 | 153 to 155 °C |
| CC(C)(Oc1ccc(COCc2ccc3cn(-c4ccc(C(F)(F)F)cc4)nc3c2)cc1)C(=O)O | 129 to 131 °C |
| COc1ccc(CN(CCCNc2nccc(=O)[nH]2)c2ccccn2)cc1 | 63 to 80 °C |
| CNc1ncn(-c2c(Cl)cccc2Cl)c(=O)n1 | 270 °C |
| CCCCCN1C(=O)C(=O)c2cc(SCCCc3ccc(C(=O)O)cc3)ccc21 | 145 to 146 °C |
| CCCCOc1c(CNC(=O)OC(C)(C)C)n(CC(C)C)c(=O)c2ccc(-c3nc(C(=O)O)cs3)cc12 | 195 to 196 °C |
| COc1nc2ccc(Br)cc2cc1Cc1ccccc1 | 83 to 85 °C |
| CC(C)(C)OC(=O)NCC(=O)NCC(=O)NCC(=O)O (Boc-Gly-Gly-Gly-OH) | 115 to 120 °C |
| CCCCCN1CC[C@@H](c2ccc(Cl)cc2)[C@H](CO)C1 (racemic) | 125 to 128 °C |
| COc1cc(OC)cc(-c2ncn(-c3cc(OC)c(OC)c(OC)c3)c2-c2ccc(OC)c(F)c2)c1 | 157 to 158 °C |
| NC(=O)N1Cc2c(-c3ccc(F)cc3)ncn2-c2ccccc21 | 222 to 223 °C |
| CC(=O)OC(CCCN1CCN(c2ncc(F)cn2)CC1)c1ccc(F)cc1 (stereo not given) | 76 to 77 °C |
| CCCn1c(=O)c2nc(C(CC)c3ccc(OCC(=O)NCCN)cc3)[nH]c2n(CCC)c1=O (stereo not given) | 139 to 140 °C |
| O=C(NC1CCCCC1)N1CCc2cc(S(=O)(=O)N3CC(c4ccccc4)NC3=O)ccc21 (stereo not given) | 273 to 275 °C |
| CC(Oc1ccc(-c2ccc(S(N)(=O)=O)c(F)c2)cc1)C(O)CCc1cccnc1 (stereo not given) | 178 to 180 °C |
| CCCCCCCCCCCCOCCCNc1cc(OCC(=O)Nc2ccc(NNC=O)cc2)c2ccccc2c1O | 137 to 141 °C |
| COC(c1ccccc1)c1nc2c(N)nc3ccccc3c2n1CC(C)C (stereo not given) | 183 to 184 °C |
| O=C(O)C1(c2ccccc2)CCN(CCC(c2ccccc2)(c2ccccc2)c2ccccn2)CC1 | 270 to 275 °C |
| CCOC(=O)C(F)=C(C)NC(=O)Nc1cc(C(=O)OC(C)C)c(Cl)cc1F | 150 to 152 °C |
| C=C[C@H]1C(=O)N(C)[C@H](C(C)(C)C)N1C(=O)c1ccccc1 | 169 to 171 °C |
| Oc1ccc([C@@H]2C[C@H]2c2ccccc2)cc1 (relative stereo) | 78 to 79 °C |
| C/C(=C\C(=O)NCc1cccnc1)c1ccc(OCC(=O)O)cc1 | 228 to 229 °C |
| COc1cc(OCC(=O)O)c(C)cc1SCc1ccc(-c2ccc(Cl)c(Cl)c2)cc1 | 161 to 162 °C |
| CCNS(=O)(=O)c1cccc(NC(=O)c2cnn3c(C(F)F)cc(-c4ccc(C(F)(F)F)c(OCC)c4)nc23)c1 | 222 °C |

| SMILES | melting point |
| --- | --- |
| CC(=C(c1ccc(F)cc1)c1ccc(F)cc1)P(c1ccccc1)c1ccccc1 | 88 to 90 °C |
| CCN(C(=O)C1CC1)c1cccc(-c2ccnc3c(C(=O)c4ccccc4)cnn23)c1 | 153 to 155 °C |
| COc1ccc(-c2c(NC(=O)Nc3ccc(F)cc3F)cnc3ccc(Cl)cc23)c(O)c1OC | 218 to 220 °C |
| CCOC(=O)c1cnc2cn[nH]c2c1Nc1ccccc1 | 164 to 165 °C |
| CCn1c(=O)c2c(nc(/C=C/c3cccc(OC)c3)n2C)n(CC)c1=O | 153 to 155 °C |
| CCCC(=O)N(C)c1cccc(-c2ccc3nnc(C)n3n2)c1 | 140 to 143 °C |
| CC(C)(C)NNC(=S)c1ccccc1 | 165 to 168 °C |
| CCOC(=O)c1c2n(c3c(F)c(N4CCC(NC(=O)OC(C)(C)C)C4)c(F)cc3c1=O)C(C)S2 (stereo not given) | 174 to 176 °C |
| Cc1cccc(NC(=O)c2ccccc2CN2C(=O)C3(COc4cc5c(cc43)CCO5)c3ccccc32)c1C (stereo not given) | > 230 °C |
| O=c1[nH]c2ccccc2c(=O)n1C1CCN(Cc2ccccc2)CC1 | 223 °C |
| Cc1c(Sc2ccccc2)c2cccc3c2n1C(CN1CCOCC1)CO3 (single isomer, unassigned; (+)) | 126 to 128 °C |
| CCCCC(CC)n1nnc2c(Nc3ccc(C(C)C)cc3Br)nc(C)cc21 (stereo not given) | 73 to 74 °C |
| N#CCCSCc1csc(NC(=N)N)n1 | 127 to 128 °C |
| CC(=O)c1ccccc1CN1C(=O)C(NC(=O)Nc2cccc(-c3nnn[nH]3)c2)N=C(C2CCCCC2)c2cccc(C)c21 (stereo not given) | 199 to 208 °C |
| CCOc1cc(C(=O)N2CCC(CCN3CCC(C(N)=O)(c4ccccc4)CC3)(c3ccc(OC)c(OC)c3)C2)cc(OCC)c1OCC (stereo not given) | 139 to 141 °C |
| COc1ccc2cc3ncc(C#N)c(Cl)c3cc2c1 | 242 to 243 °C |
| COc1nc(O)nn1C(C)C | 102 to 103 °C |
| COc1ccc(OC)c2c1CC(O)(C(=O)O)CC21SCCS1 (stereo not given) | 178 to 180 °C |
| CN(C)CCCOc1ccc(C(=O)NN)nc1 | 82 to 83 °C |
| Cc1c(C(=O)Nc2ccc(N3CCC(N(CCO)CCO)CC3)c(C#N)c2)cnn1-c1ccc(Cl)cc1 | 230 to 233 °C |
| S=C=Nc1ccc(-c2nc(-c3cccnc3)no2)cc1 | 121 to 123 °C |
| O=CC(=C(c1ccc(F)cc1)c1ccc(F)cc1)n1nnnc1-c1ccccc1 | 193 to 194 °C |
| CCOC(=O)C(=C1NCCCN1OC)[N+](=O)[O-] | 177 to 178 °C |
